In article PMC11476552, “Synthesis and Preliminary Studies for In Vitro Biological Activity of Two New Water-Soluble Bis(thio)carbohydrazones and Their Copper(II) and Zinc(II) Complexes” (International Journal of Molecular Sciences, 2024):
Values joined by “and” are separate entries in the source; they are usually repeats but may differ in a detail not shown here. Identical values can stand only once. Like-named read-outs stand apart in the source and are kept apart here.

Key:
[1] = Proton dissociation constants by pH potentiometry; assay type: physicochemical; details: aqueous solution, T = 298.2 K, I = 0.1 M KCl
Description: Between pH = 3.98 and 6.00, the solutions were colourless with absorption maxima at 237 and 320 nm. From pH = 6.49, the solution was pale green, and the colour became more intense until pH = 10.00; the colour change was accompanied by the appearance of bands at 253 and 393 nm, with a shoulder at 445 nm. […] This value is similar to that reported for the deprotonation of the phenolic moiety of sodium 5-sulfonate-salicylaldehyde thiosemicarbazones. The values of pKa1 and pKa2, associated with the proton dissociation of the sulfonic groups, are expected to have much lower values (below 3) and could not be determined from these experiments. Potentiometric titrations were performed in an attempt to determine the value of the pKa of the hydrazidic NH protons (pKa5 and pKa6) and, possibly, those of the protonated sulfonate groups. Effectively, potentiometric data allowed us to determine the pKa5 value, along with pKa3 and pKa4 (Table 2). The values of pKa3 and pKa4 obtained by potentiometry are consistent with those obtained by spectrophotometric titrations.
Similarly, the proton dissociation constants of bis-CH were studied spectrophotometrically in aqueous solution between pH = 3.98 and 10.00 (Figure 1B). […] The spectrophotometric data were processed by means of HypSpec2014 software, leading to pKa3 = 7.34(1) and pKa4 = 8.58(1), which were assigned to the deprotonation of the two phenolic OH groups (Table 2). As for bis-TCH, the single-site pKa value of the phenolic groups can be estimated as the average pKa (7.96). Additionally, to complete the analysis, we carried out potentiometric titrations of bis-CH starting from a very acidic pH. […] Importantly, no dissociation of the hydrazidic NH groups was observed, a behaviour consistent with that reported in the literature.
Glass-electrode potentiometric titrations of bis-TCH and bis-CH were carried out in aqueous solution at T = 298.2 ± 0.1 K and I = 0.1 M (KCl) under a stream of N2, using 1.5 mL samples. The potentiometric titrations were carried out using an automatic Metrohm OMNIS titrator provided with a Metrohm semi-micro glass electrode. The system was controlled by a PC to monitor the attainment of the equilibrium through pH measurements vs. time and the addition of titrant aliquots. The Metrohm combined glass electrode was calibrated in terms of [H^+] (hereafter, pH = −log[H^+]) by titrating HCl solutions with KOH solutions previously standardized against potassium hydrogen phthalate. […] The protonation constants of Na2H4L^1·5.5 H2O and Na2H4L^2·5 H2O were determined by alkalimetric titration of 3 samples (3.0–4.5 mM). All samples were prepared by weight of the pure solids and dissolved in freshly prepared, N2-fluxed, double-distilled water. Potentiometric data treatment was carried out using Hyperquad2013 software. Distribution diagrams were obtained using Hyss2009 software.

[2] = Solubility of the ligands and complexes in water; assay type: physicochemical; details: for solubility: r.t.
Description: Elemental (see experimental section) and TGA (Figure S5) analyses confirmed the formulae Na2H4L^1∙5.5H2O (bis-TCH) and Na2H4L^2∙5H2O (bis-CH).

[3] = test system: U937 cells; assay: Antiproliferative activity, trypan blue cell count, U937; assay type: cell-based; details: for GI50: Homo sapiens, U-937, U937, 72 h
Experimental: (§1) We have started to investigate the antiproliferative profile of the ligands and of the complexes C1–C4 using a normal fibroblast cell line (Hs27) and a leukaemia cell line (U937), an in vitro cell model system systematically used to validate the toxicological profile of new potential anticancer agents. For the cytotoxicity assay, we treated Hs27 and U937 cells with five different concentrations of compound, ranging from 12.5 to 100 µg/mL, for 24, 48, and 72 h.
(§2) U937 cells (ATCC, CRL-1593.2) were obtained from the American Tissue Culture Collection (Rockville, MD, USA) and were cultured in Roswell Park Memorial Institute Medium (RPMI-1640) (Euroclone, Italy); Hs27 cells (ATCC, CRL1634) were grown in DMEM. Both media were supplemented with 10% (v/v) foetal bovine serum (Euroclone, Italy), 1% L-glutamine (2 mM) (Euroclone, Italy), and 1% penicillin (100 U/mL)/streptomycin (100 µg/mL) (Euroclone, Italy), added with 10% (v/v) foetal bovine serum (Euroclone, Italy), 1% L-glutamine (2 mM) (Euroclone, Italy), and 1% penicillin (100 U/mL)/streptomycin (100 µg/mL) (Euroclone, Italy). Flasks were maintained at 37 °C and 5% CO2 in a humidified atmosphere. Cultures media were refreshed every two or three days during sub-culturing.
The antiproliferative activity of the ligands and the complexes C1–C4 was evaluated in vitro on U937 and Hs27 cell lines. In the exponential growth phase, cells were seeded at 5 × 10^4/mL into 12-well flat-bottom microplates. Cells were cultured in complete medium supplemented with 10% FBS, 1% L-glutamine, and 1% penicillin/streptomycin at 37 °C, 5% CO2. After seeding, different concentrations of compounds in the range from 0 to 100 µg/mL in a sterile 1X PBS solution were added to the wells and incubated for 24, 48, and 72 h. A negative control was obtained by treating cells with 1X PBS. To detect whether the treatments caused a defect in cell viability, following 24, 48, and 72 h treatments with the compounds, cells were stained with trypan blue (TB, 0.4%) (Gibco™, Thermofisher Scientific, Waltham, MA, USA). Two independent experiments were performed, and a Bürker chamber was used for cell counts. The GI50 value, i.e., the concentration causing a 50% reduction in the cell number in comparison with control cells, was calculated taking into account the guidelines of the US National Cancer Institute (NCI). Values are reported as the mean of the GI50 calculated on two independent experiments.

[4] = test system: Hs27 cells; assay: Antiproliferative activity, trypan blue cell count, Hs27; assay type: cell-based; details: Hs27, up to 100 µg/mL, 24-72 h
Experimental: as §1
as §2, with “Cultures media were refreshed every two or three days during sub-culturing.” left out
The antiproliferative activity of the ligands and the complexes C1–C4 was evaluated in vitro on U937 and Hs27 cell lines. […] Values are reported as the mean of the GI50 calculated on two independent experiments.

COc1cc(S(=O)(=O)[O-])cc(/C=N/NC(=O)N/N=C/c2cc(S(=O)(=O)[O-])cc(OC)c2O)c1O.[Na+].[Na+] [bis-CH, Bis-(sodium 3-methoxy-5-sulfonate-salicylaldehyde)-carbohydrazone]
pKa ([1]; read-out: pKa3): 7.77 | pKa ([1]; read-out: pKa4): 8.45 | pKa ([1]; second sulfonic group, read-out: pKa2): 1.7 | solubility in water (in words) [2]: very soluble in water | solubility [2]: ~23 mg/mL | GI50 [3]: 46.5 µg/mL and 71.8 µM | cytotoxic effect (in words) ([3]; U937, up to 100 µg/mL, 24-72 h): mild antiproliferative activity | cytotoxic effect (in words) [4]: did not produce a reduction in cell viability

COc1cc(S(=O)(=O)[O-])cc(/C=N/NC(=S)N/N=C/c2cc(S(=O)(=O)[O-])cc(OC)c2O)c1O.[Na+].[Na+] [bis-TCH, Bis-(sodium 3-methoxy-5-sulfonate-salicylaldehyde)-thiocarbohydrazone]
pKa ([1]; hydrazidic NH, read-out: pKa5): 11.3 | pKa ([1]; read-out: pKa3): 7.08 | pKa ([1]; read-out: pKa4): 8.54 | solubility in water (in words) [2]: very soluble in water | solubility [2]: ~10 mg/mL | GI50 [3]: 98 µg/mL and 144 µM | reduction in cell viability ([3]; U937, highest dose, 72 h): 50%
